Reference: patent US20260325515A1, “TREATMENT OF CANINE CANCERS” (OneHealthCompany, Inc., priority 2023, published 2026)

Experiments:
Type in all cases: in vivo, canine (dogs)
Anal Sac carcinoma = experiment: Survival of dogs with anal sac carcinoma with Olaparib; details: 85 without Olaparib
From the text: A significant survival benefit in dogs with anal sac carcinoma treated with Olaparib was observed. Dogs receiving Olaparib achieved a median survival of 422 days compared to 273 days in untreated cases, with a hazard ratio of 0.319 and a statistically significant p-value of 0.023 (Table 2).

Osteosarcoma = experiment: Survival of dogs with osteosarcoma treated with Olaparib (Cox proportional-hazards model)
From the text: (§1) A Cox proportional-hazards model was used to fit survival time. The model estimates the risk of death at a given time, h(t|X)=h(t)*exp(X1β1+ . . . +Xpβp), where h represents the risk of death at time t, and X represents p covariates. Additionally, the ratio of the hazard rates in the treatment group versus the control group is represented as the hazard ratio.
(§2) A one-hot encoded feature for each targeted therapy (treatment) received by the dog was created. For example, if a dog receives multiple treatments, the encoding for each treatment would be a “1,” otherwise, a treatment is encoded as “0”. Similarly, gene mutations were one-hot encoded and treated as independent variables during the analyses. Tumor types were grouped into broad categories to preserve sample size and include them as one-hot encoded features.
(§3) Each dog's survival time and status were determined based on their last known update, which was reported by the veterinarian's office. A dog is only considered deceased if there is a reported date of death, and is only considered to have survived up until the last known update. Two survival intervals were computed: survival from time of diagnosis and survival from time of treatment. When reporting hazard ratios regardless of intervention, survival time is defined as survival from time of diagnosis, which is the time from diagnosis to last known update if the dog is still active, and the time from diagnosis to death if the dog is deceased. When reporting hazard ratios for specific treatments, survival time is defined as survival from treatment. The first date of any targeted therapy being ordered is used as the start of the treatment date.
(§4) Demographic features, including weight in kilograms, sex, and reproductive status (neutered or spayed vs intact), were extracted and used as covariates in the Cox model. In addition, to control for each dog's baseline survival rates, the dog's age at diagnosis, as well as the time from diagnosis to treatment are included, which is computed by […].

[1] = tested on: TP53 mutant osteosarcomas; experiment: Real-world clinico-genomic analysis, TP53 mutant osteosarcomas; details: Olaparib, P<0.001
Protocol: (§5) Briefly, real-world clinico-genomic data from 3000 dogs were analyzed.

[2] = tested on: soft tissue sarcomas with TP53 mutations; experiment: Real-world clinico-genomic analysis, soft tissue sarcomas with TP53 mutations
Protocol: as §5

[3] = tested on: TP53-mutated canine tumors; experiment: Real-world clinico-genomic analysis, TP53-mutated canine tumors
Protocol: as §5

BRCA1-mutated cases = experiment: Real-world clinico-genomic analysis, BRCA1-mutated cases; details: Olaparib, P=0.004
Protocol: as §5

[4] = tested on: oral malignant melanoma carrying BRCA1/2 mutations; experiment: Survival of dogs with oral malignant melanoma carrying BRCA1/2 mutations treated with Olaparib; details: oral malignant melanoma with BRCA1/2 mutations, vs 235 days for other biomarker profiles and alternative drugs, P=0.0120
Melanoma = experiment: Survival of dogs with melanoma treated with Palbociclib (Cox proportional-hazards model)
From the text: as §1, §2, §3, §4

[5] = tested on: RB1-mutated canine tumors; experiment: Real-world clinico-genomic analysis, RB1-mutated canine tumors; details: Rapamycin, P=0.024
Protocol: as §5

carcinoma = experiment: Survival of dogs with carcinoma with Toceranib; details: 65 without Toceranib
From the text: Dogs receiving Toceranib achieved a median survival of 419 days compared to 250 days in untreated cases, with a hazard ratio of 0.292 and a statistically significant p-value of 0.003 (Table 3).

Squamous cell carcinoma = experiment: Survival of dogs with squamous cell carcinoma treated with Toceranib (Cox proportional-hazards model)
From the text: as §1, §2, §3, §4

Question: How did the “Median Survival With Olaparib” value (Anal Sac carcinoma; 13 dogs with, without Olaparib 372 days (Table 2) / 273 days) turn out when `O=C(c1cc(Cc2n[nH]c(=O)c3ccccc23)ccc1F)N1CCN(C(=O)C2CC2)CC1` [Olaparib] was run?
Answer: 422 days

Question: What about the “Hazard Ratio” value (Anal Sac carcinoma; 95% CI (0.119-0.855), p-value 0.023, 13 dogs with) of the same molecule?
Answer: 0.319

Question: And the “Median survival (#patients) with treatment” value (Osteosarcoma; dogs, 16 patients with treatment, 154 d (158) without treatment)?
Answer: Inf (16)

Question: And the “Hazard Ratio (Signal Efficacy)” value (Osteosarcoma; dogs, treatment vs control, P = 0.021)?
Answer: 0.181

Question: What about the “median survival” value (Osteosarcoma; vs. 154 days without treatment) of the same molecule?
Answer: no death observed

Question: And the “OS HR” value [1]?
Answer: 0.11

Question: What about the “OS HR” value ([2]; Olaparib, P=0.011) of the same molecule?
Answer: 0.07

Question: And the “OS HR” value ([3]; TP53-mutated cases, Olaparib, P<0.001)?
Answer: 0.34

Question: What about the “OS HR” value (BRCA1-mutated cases) of the same molecule?
Answer: 0.39

Question: What about the median survival [4] of the same molecule?
Answer: 448 days

Question: How did the “Median survival (#patients) with treatment” value (Melanoma; dogs, 13 patients with treatment, 159 d (114) without treatment) turn out when `CC(=O)c1c(C)c2cnc(Nc3ccc(N4CCNCC4)cn3)nc2n(C2CCCC2)c1=O` [Palbociclib] was run?
Answer: 433 d (13)

Question: And the “Hazard Ratio (Signal Efficacy)” value (Melanoma; dogs, treatment vs control, P = 0.043)?
Answer: 0.273

Question: And the “median survival” value (Melanoma; vs. 159 days without treatment)?
Answer: 433 days

Question: How did the “OS HR” value [5] turn out when `CO[C@H]1C[C@@H]2CC[C@@H](C)[C@@](O)(O2)C(=O)C(=O)N2CCCC[C@H]2C(=O)O[C@H]([C@H](C)C[C@@H]2CC[C@@H](O)[C@H](OC)C2)CC(=O)[C@H](C)/C=C(\C)[C@@H](O)[C@@H](OC)C(=O)[C@H](C)C[C@H](C)/C=C/C=C/C=C/1C` [Rapamycin] was run?
Answer: 0.32

Question: What about the “OS HR” value ([2]; Rapamycin, P=0.012) of the same molecule?
Answer: 0.11

Question: What about the “OS HR” value ([3]; TP53-mutated canine tumors, Rapamycin, P=0.028) of the same molecule?
Answer: 0.73

Question: Which results are given for `Cc1[nH]c(/C=C2\C(=O)Nc3ccc(F)cc32)c(C)c1C(=O)NCCN1CCCC1` [Toceranib]?
Answer: Median Survival With Toceranib (carcinoma; 26 dogs with, without Toceranib 250 days): 419 days; Hazard Ratio (carcinoma; 95% CI printed (1.31-0.65), p-value 0.003, 26 dogs with): 0.292; Median survival (#patients) with treatment (Squamous cell carcinoma; dogs, 13 patients with treatment, 183 d (32) without treatment): 577 d (13); Hazard Ratio (Signal Efficacy) (Squamous cell carcinoma; dogs, treatment vs control, P = 0.005): 0.072; median survival (Squamous cell carcinoma; vs. 183 days without treatment): 577 days
